Where two headings read alike, the source gives them in different places.
Assay: Pharmacokinetic assays of compounds after oral gavage administration to rats
Format: in vivo, male SD rats
Set-up: AUMC(0-t) / AUMC(0-∞): unit not given here
Details: for AUC as percentage of that of 4-AAM administered at the same molar amount: relative to 4-AAM directly administered
Description: Example 13: Pharmacokinetic Assays of Compounds
Instruments: ultra high performance liquid chromatography (Acquity UPLC, Waters) system; triple quadrupole mass spectrometer (Qtrap 5500, Sciex); high-speed refrigerated centrifuge (5430R, Eppendorf).
Chromatography Conditions: Column: Waters BEH C18 2.1×50 mm ([…]); Column Temperature: 45° C.; Mobile Phase: 0.1% aqueous solution of formic acid (A)/acetonitrile; Gradient: see Table 2 below: […]
Mass Spectrometry Condition: Mode: positive ion multiple reaction monitoring (MRM); Curtain Gas: 45 psi; Gas 1: 45 psi; Gas 2: 45 psi; Ion Source Temperature: 500° C.; Ion Source Voltage: 5000 V.
Experimental Animals: male SD rats, weighing 200-240 grams, fasting overnight before experiments.
Each suspension is prepared before administration.
Each sample was placed in an ice bath, centrifuged for plasma collection, frozen and stored.
Plasma Drug Concentration Data and Calculation of Pharmacokinetic Parameters:
Plasma drug concentration data was processed using MultiQuan 3.0 (Sciex), and pharmacokinetic parameters were calculated using the DAS 2.0 software. Plasma drug concentrations were measured in ug/L.

[1] = male SD rats, oral gavage, 30.0 mg/kg, suspension in 0.5% CMC-Na, plasma

AUC(0-t) [1] [ng·h/mL]	AUC(0-∞) [1] [ng·h/mL]	AUMC(0-t) [1]	AUMC(0-∞) [1]	CLz/F [1] [mL/min/kg]	Cmax [1] [ng/mL]	MRT(0-t) [1] [h]	MRT(0-∞) [1] [h]	Tmax [1] [h]	VRT(0-t) [1] [h^2]	VRT(0-∞) [1] [h^2]	t½z [1] [h]	mean retention time (rats, oral gavage) [h]	time to peak concentration (rats, oral gavage) [h]	AUC compared with 4-AAM administered at the same molar amount (rats, oral gavage, in words)	AUC as percentage of that of 4-AAM administered at the same molar amount (rats, oral gavage) [%]	Compound	other results
1038.6	1059.6	2950.4	3200.9	472	257.2	2.8	3.0	1.0	4.6	6.3	1.7	2.8	1	much greater AUC		C=CC(=O)N1CCC[C@@H](n2nc(-c3ccc(Oc4ccccc4)cc3)c3c(NC(=O)OC(C)C)ncnc32)C1 [Compound 1]	
663.0	706.3	2844.3	3495.04	708	111.0	4.29	4.9	2.0	7.2	13.5	2.338	4.3	2		88	C=CC(=O)N1CCC[C@@H](n2nc(-c3ccc(Oc4ccccc4)cc3)c3c(NC(=O)OCCC)ncnc32)C1 [Compound 2]	
		1316.6	2805.6						2.0	47.6	8.9					C=CC(=O)N1CCC[C@@H](n2nc(-c3ccc(Oc4ccccc4)cc3)c3c(N)ncnc32)C1 [Compound 4-AAM, 1-[(3R)-3-[4-amino-3-(4-phenoxyphenyl)-1H-pyrazolo[3,4-D]pyrimidin-1-yl]-1-piperidinyl]-2-propen-1-one, reference compound]	AUC(0-inf) (rat, male SD rats, oral gavage, 30.0 mg/kg, suspension in 0.5% CMC-Na, plasma): 822 ng·h/mL; AUC(0-t) (rat, male SD rats, oral gavage, 30.0 mg/kg, suspension in 0.5% CMC-Na, plasma, read-out: AUC(0-t)): 758 ng·h/mL; Cmax (rat, male SD rats, oral gavage, 30.0 mg/kg, suspension in 0.5% CMC-Na, plasma, read-out: Cmax): 312 ng/mL; MRT last (rat, male SD rats, oral gavage, 30.0 mg/kg, suspension in 0.5% CMC-Na, plasma, read-out: MRT(0-t)): 1.7 h; MRT inf (rat, male SD rats, oral gavage, 30.0 mg/kg, suspension in 0.5% CMC-Na, plasma, read-out: MRT(0-∞)): 3.4 h
964.1	976.4	2405.5	2586.7	512	256.7	2.5	2.6	2.0	2.9	4.8	2.5	2.5	2	much greater AUC	127	C=CC(=O)N1CCC[C@@H](n2nc(-c3ccc(Oc4ccccc4)cc3)c3c(NC(=O)OCC(C)C)ncnc32)C1 [Compound 4]	
584.0	587.1	1659.5	1696.7	852	143.9	2.8	2.9	2.0	3.0	3.5	1.3					C=CC(=O)N1CCC[C@@H](n2nc(-c3ccc(Oc4ccccc4)cc3)c3c(NC(=O)OCCCCCC)ncnc32)C1 [Compound 5]	

Compound	AUC(0-t) [1] [ng·h/mL]	AUC(0-∞) [1] [ng·h/mL]	AUMC(0-t) [1]	AUMC(0-∞) [1]	CLz/F [1] [mL/min/kg]	Cmax [1] [ng/mL]	MRT(0-t) [1] [h]	MRT(0-∞) [1] [h]	Tmax [1] [h]	VRT(0-t) [1] [h^2]	VRT(0-∞) [1] [h^2]	t½z [1] [h]	mean retention time (rats, oral gavage) [h]	time to peak concentration (rats, oral gavage) [h]	AUC compared with 4-AAM administered at the same molar amount (rats, oral gavage, in words)	AUC as percentage of that of 4-AAM administered at the same molar amount (rats, oral gavage) [%]	other results
C=CC(=O)N1CCC[C@@H](n2nc(-c3ccc(Oc4ccccc4)cc3)c3c(NC(=O)OCCCC)ncnc32)C1 [Compound 3]	1366.7	1375.6	3939.9	4052.0	363	304.4	2.9	2.9	2.0	3.3	3.8	1.3	2.9	2	much greater AUC	180	hydrolysis in the blood plasma into the 4-amino active metabolite (4-AAM) (rats, after oral absorption, in words): highest rate

— patent publication US20240360144A1, “PYRAZOLOPYRIMIDINE ESTER COMPOUND” (Shanghai Maius Pharmaceutical Co. Ltd., priority 2021, published 2024)
